Columns and labels:
Vγ2/Vδ2 T cells [1] = system: Vγ2/Vδ2 T cells
Vγ2/Vδ2 T cells [2] = system: Vγ2/Vδ2 T cells; remark: listed apart in the source
γ/δ T cells [3] = settings: cited from earlier work
γ/δ T cells [4] = settings: in vivo, iv; cited from earlier work

NCCCC(O)(P(=O)(O)O)P(=O)(O)O [Alendronate]
total CD3+ T cells that produced IFNγ (Vγ2/Vδ2 T cells [1]): 5-10%
subset showing intracellular IFNγ (Vγ2/Vδ2 T cells [2]): restricted to the Vγ2/Vδ2 subset

O=P(O)(O)C(O)(Cc1cccnc1)P(=O)(O)O [Risedronate]
activity for stimulating γ/δ T cells (γ/δ T cells [3]): highly active

NCCC(O)(P(=O)(O)O)P(=O)(O)O [pamidronate, Pamidronate]
change in γ/δ T cell count after drug infusion (γ/δ T cells [4]): increase in γ/δ T cell count
